Measurements as given in PubChem BioAssay AID330 (DTP/NCI, 2004).
“And” between values parts separate entries of the source, which are not always exact repeats. Identical values can stand only once. Inconclusive results and toxic doses are left out. Rule for the calls: active = survival T/C of 150% or more; inactive = T/C below 125% in these data.

System: P388 leukemia ip, CD2F1 mice, survival T/C
Assay: NCI In Vivo Anticancer Drug Screen. Data for tumor model P388 Leukemia (intraperitoneal) in CD2F1 (CDF1) mice
Settings: endpoint: median survival time, higher = longer survival
In short: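 Mice carrying the transplanted tumor received test compound or vehicle. Survival was recorded in each group, and the value is the treated-group measurement divided by that of the vehicle-treated control group.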

[1] = dose: 100.0 mg/kg/injection, schedule: Q01DX001 (ip), vehicle: saline with Tween-80
[2] = dose: 200.0 mg/kg/injection, schedule: Q01DX001 (ip), vehicle: saline with Tween-80
[3] = dose: 400.0 mg/kg/injection, schedule: Q01DX001 (ip), vehicle: saline with Tween-80
[4] = dose: 12.5 mg/kg/injection, schedule: Q01DX009 (ip), vehicle: saline with Tween-80
[5] = dose: 25.0 mg/kg/injection, schedule: Q01DX009 (ip), vehicle: saline with Tween-80
[6] = dose: 50.0 mg/kg/injection, schedule: Q01DX009 (ip), vehicle: saline with Tween-80
[7] = dose: 60.0 mg/kg/injection, schedule: Q01DX005 (ip), vehicle: saline with Tween-80
[8] = dose: 120.0 mg/kg/injection, schedule: Q01DX005 (ip), vehicle: saline with Tween-80
[9] = dose: 240.0 mg/kg/injection, schedule: Q01DX005 (ip), vehicle: saline with Tween-80
[10] = dose: 12.5 mg/kg/injection, schedule: Q01DX009 (ip), vehicle: saline
[11] = dose: 25.0 mg/kg/injection, schedule: Q01DX009 (ip), vehicle: saline
[12] = dose: 50.0 mg/kg/injection, schedule: Q01DX009 (ip), vehicle: saline
[13] = dose: 100.0 mg/kg/injection, schedule: Q01DX009 (ip), vehicle: saline
[14] = dose: 200.0 mg/kg/injection, schedule: Q01DX009 (ip), vehicle: saline
[15] = dose: 1.56 mg/kg/injection, schedule: Q01DX009 (ip), vehicle: saline
[16] = dose: 6.25 mg/kg/injection, schedule: Q01DX009 (ip), vehicle: saline
[17] = dose: 50.0 mg/kg/injection, schedule: Q01DX009 (ip), vehicle: Klucel (hydroxypropylcellulose) (HPC)
[18] = dose: 100.0 mg/kg/injection, schedule: Q01DX009 (ip), vehicle: Klucel (hydroxypropylcellulose) (HPC)
[19] = dose: 200.0 mg/kg/injection, schedule: Q01DX009 (ip), vehicle: Klucel (hydroxypropylcellulose) (HPC)
[20] = dose: 50.0 mg/kg/injection, schedule: Q01DX005 (ip), vehicle: Klucel (hydroxypropylcellulose) (HPC)
[21] = dose: 100.0 mg/kg/injection, schedule: Q01DX005 (ip), vehicle: Klucel (hydroxypropylcellulose) (HPC)
[22] = dose: 200.0 mg/kg/injection, schedule: Q01DX005 (ip), vehicle: Klucel (hydroxypropylcellulose) (HPC)

Measured: T/C

O=C1C=C(c2ccccc2)CS1
inactive: dose: 100.0 mg/kg/injection, schedule: Q04DX003 (ip), vehicle: Klucel (hydroxypropylcellulose) (HPC) 101 % of control | dose: 200.0 mg/kg/injection, schedule: Q04DX003 (ip), vehicle: Klucel (hydroxypropylcellulose) (HPC) 101 % of control | dose: 400.0 mg/kg/injection, schedule: Q04DX003 (ip), vehicle: Klucel (hydroxypropylcellulose) (HPC) 101 % of control

CCOC(=O)N1C(C)=CC=C/C1=C/C=C(C#N)C#N
inactive: [1] 94 % of control | [2] 90 % of control | [3] 89 % of control

CCS(=O)(=O)CCN1C(=O)CN=C(c2ccccc2F)c2cc(Cl)ccc21
inactive: [4] 102 % of control | [5] 104 % of control | [6] 103 % of control | dose: 100.0 mg/kg/injection, schedule: Q01DX009 (ip), vehicle: saline with Tween-80 110 % of control

NC(=O)N/N=C(/Cc1nc2ccccc2nc1C/C(=N/NC(N)=O)c1cccc2ccccc12)c1cccc2ccccc12
inactive: [7] 99 % of control and 95 % of control | [8] 100 % of control | [9] 100 % of control and 91 % of control

OCCNCCNCC[OH2+].OCCNCCNCC[OH2+].[Ni+2].[O-][Cl+3]([O-])([O-])[O-]
inactive: [10] 100 % of control | [11] 98 % of control

O=C(O)CCC12CCC(=O)N1Cc1ccccc1C2=O (stereo not given)
inactive: [7] 107 % of control | [8] 110 % of control | [9] 109 % of control

CCCCCCCCC[N+]1([O-])CCOCC1
inactive: [12] 100 % of control | [13] 97 % of control | [14] 88 % of control

O=C(CN1C(=O)c2cccc3c(Br)ccc(c23)C1=O)c1ccc(F)cc1
inactive: dose: 50.0 mg/kg/injection, schedule: Q01DX005 (ip), vehicle: saline with Tween-80 87 % of control | dose: 100.0 mg/kg/injection, schedule: Q01DX005 (ip), vehicle: saline with Tween-80 103 % of control | dose: 200.0 mg/kg/injection, schedule: Q01DX005 (ip), vehicle: saline with Tween-80 89 % of control

CC1(C)CC(C)(OC(=O)c2ccc(Cl)cc2)[N+]([O-])=N1 (stereo not given)
inactive: dose: 12.5 mg/kg/injection, schedule: Q01DX009 (ip), vehicle: other 98 % of control | dose: 25.0 mg/kg/injection, schedule: Q01DX009 (ip), vehicle: other 98 % of control | dose: 50.0 mg/kg/injection, schedule: Q01DX009 (ip), vehicle: other 106 % of control | dose: 100.0 mg/kg/injection, schedule: Q01DX009 (ip), vehicle: other 89 % of control | dose: 200.0 mg/kg/injection, schedule: Q01DX009 (ip), vehicle: other 89 % of control

CCCCCCOc1ccc(OCCCC[N+]2(CC)CCCCC2)cc1
inactive: [15] 105 % of control | dose: 3.12 mg/kg/injection, schedule: Q01DX009 (ip), vehicle: saline 106 % of control | [16] 104 % of control

CC(CN=Cc1ccccc1O)N=Cc1ccccc1O.[Zn] (stereo not given)
inactive: dose: 6.25 mg/kg/injection, schedule: Q01DX009 (ip), vehicle: saline with Tween-80 103 % of control | [4] 111 % of control | [5] 93 % of control and 97 % of control | [6] 99 % of control

NC(=Nc1ccccc1)NNC=O
inactive: dose: 50.0 mg/kg/injection, schedule: Q01DX005 (ip), vehicle: saline 102 % of control | dose: 100.0 mg/kg/injection, schedule: Q01DX005 (ip), vehicle: saline 104 % of control | dose: 200.0 mg/kg/injection, schedule: Q01DX005 (ip), vehicle: saline 100 % of control

OC(CCl)Cc1ccccc1 (stereo not given)
inactive: dose: 25.0 mg/kg/injection, schedule: Q04DX003 (ip), vehicle: saline with Tween-80 104 % of control | dose: 50.0 mg/kg/injection, schedule: Q04DX003 (ip), vehicle: saline with Tween-80 100 % of control | dose: 100.0 mg/kg/injection, schedule: Q04DX003 (ip), vehicle: saline with Tween-80 100 % of control

C=CC[P+](Cc1ccccc1)(c1ccccc1)c1ccccc1
inactive: dose: 0.78 mg/kg/injection, schedule: Q01DX009 (ip), vehicle: saline 107 % of control | [15] 103 % of control | dose: 3.13 mg/kg/injection, schedule: Q01DX009 (ip), vehicle: saline 96 % of control

COc1ccc2c(c1OC)C1N(C)CCc3cc4c(cc3C1(OC)C2=O)OCO4 (stereo not given)
inactive: [7] 93 % of control | [8] 88 % of control | [9] 93 % of control

CCCCOP(O)(=S)OCCCC.[Sm]
inactive: [1] 92 % of control | [2] 116 % of control

CC(=O)C1C(=O)C(=O)N(Cc2ccccc2)C1=O (stereo not given)
inactive: [17] 96 % of control | [18] 114 % of control | [19] 100 % of control

COc1c2occc2c(S(=O)(=O)Cl)c2ccc(=O)oc12
inactive: [1] 95 % of control | [2] 109 % of control | [3] 100 % of control

CC(=O)Oc1cc2c(c(OC(C)=O)n1)C(C)N(Cc1ccccc1)C2=O (stereo not given)
inactive: [17] 106 % of control | [18] 106 % of control | [19] 115 % of control

COc1ccc(NCCc2ccc(-n3ncc(C(=O)NN)c3N)nn2)cc1OC
inactive: dose: 75.0 mg/kg/injection, schedule: Q01DX005 (ip), vehicle: other 93 % of control | dose: 150.0 mg/kg/injection, schedule: Q01DX005 (ip), vehicle: other 93 % of control | dose: 250.0 mg/kg/injection, schedule: Q01DX005 (oral), vehicle: water 100 % of control | dose: 500.0 mg/kg/injection, schedule: Q01DX005 (oral), vehicle: water 107 % of control | dose: 1000.0 mg/kg/injection, schedule: Q01DX005 (oral), vehicle: water 110 % of control

[O-]c1c(Cl)c(Cl)c(O[P+](c2ccccc2)(c2ccccc2)c2ccccc2)c(Cl)c1Cl
inactive: [16] 108 % of control and 96 % of control | [10] 113 % of control and 97 % of control | [11] 108 % of control and 114 % of control and 92 % of control | [12] 113 % of control

O=CNNc1nn2cnnc2c2ccccc12
inactive: [12] 97 % of control | [13] 94 % of control | [14] 102 % of control

CCOC(=O)c1ccc(NC(=O)Oc2cc(=O)oc3ccccc23)cc1
inactive: [7] 91 % of control | [8] 94 % of control | [9] 99 % of control

Cc1nn(C(C)C(=O)N(C)C)c(Br)c1Br (stereo not given)
inactive: [17] 99 % of control | [18] 108 % of control | [19] 111 % of control

NC(CSSCC(NC(=O)c1ccccc1)C(=O)O)C(=O)O (stereo not given)
inactive: [20] 103 % of control and 99 % of control | [21] 106 % of control and 96 % of control | [22] 100 % of control and 101 % of control and 111 % of control

[N-]=[N+]=Nc1nn2cnnc2c2[nH]c3ccccc3c12
inactive: dose: 12.5 mg/kg/injection, schedule: Q01DX005 (ip), vehicle: Klucel (hydroxypropylcellulose) (HPC) 104 % of control | dose: 25.0 mg/kg/injection, schedule: Q01DX005 (ip), vehicle: Klucel (hydroxypropylcellulose) (HPC) 108 % of control | [20] 100 % of control and 101 % of control | [21] 96 % of control | [22] 99 % of control

COC(=O)Cn1/c(=N\N=C\c2ccc([N+](=O)[O-])cc2)sc2ccccc21
inactive: dose: 12.5 mg/kg/injection, schedule: Q01DX001 (ip), vehicle: saline with Tween-80 86 % of control | dose: 25.0 mg/kg/injection, schedule: Q01DX001 (ip), vehicle: saline with Tween-80 86 % of control | dose: 50.0 mg/kg/injection, schedule: Q01DX001 (ip), vehicle: saline with Tween-80 92 % of control | [3] 90 % of control

C=C1C(=O)OC2C1C(OC(=O)/C(C)=C/CO)C/C(C)=C/CCC1(CO)OC21 (stereo not given)
inactive: dose: 0.5 mg/kg/injection, schedule: Q01DX009 (ip), vehicle: Klucel (hydroxypropylcellulose) (HPC) 100 % of control | dose: 1.0 mg/kg/injection, schedule: Q01DX009 (ip), vehicle: Klucel (hydroxypropylcellulose) (HPC) 91 % of control | dose: 2.0 mg/kg/injection, schedule: Q01DX009 (ip), vehicle: Klucel (hydroxypropylcellulose) (HPC) 100 % of control | dose: 4.0 mg/kg/injection, schedule: Q01DX009 (ip), vehicle: Klucel (hydroxypropylcellulose) (HPC) 103 % of control and 113 % of control | dose: 8.0 mg/kg/injection, schedule: Q01DX009 (ip), vehicle: Klucel (hydroxypropylcellulose) (HPC) 105 % of control | dose: 16.0 mg/kg/injection, schedule: Q01DX009 (ip), vehicle: Klucel (hydroxypropylcellulose) (HPC) 118 % of control
